Data from patent US11166460B2, “α-amino acrylate microbicide, and preparation method therefor and uses thereof” (priority 2017, dated 2021).
Converted amounts (≈) assume the structure as drawn. Read-outs that look alike come from different tables or passages of the source.

How the values were obtained:
wheat Gibberella zeae = test: microbe, parasite or virus in culture; assay type: cell-based; conditions: Fusarium graminearum
Alternaria solani = test: Fungicidal activity, fungi growth rate method, AS; assay type: cell-based; conditions: Alternaria solani, 50 μg/mL
[1] = system: tobacco mosaic virus (TMV); test: Anti-TMV inducing activity (induction mode), tobacco seedlings; assay type: in vivo; conditions: Tobacco mosaic virus, read-out: Anti-TMV activity, Induction effect (inhibition), 100 μg/mL, tobacco seedlings
Rhizoctonia cerealis = test: Fungicidal activity, fungi growth rate method, RC; assay type: cell-based; conditions: Ceratobasidium cereale, 50 μg/mL
[2] = system: tobacco mosaic virus (TMV); test: Anti-TMV curative activity (treatment mode), live friction inoculation on tobacco seedlings; assay type: in vivo; conditions: Tobacco mosaic virus, read-out: Anti-TMV activity, Curative effect (inhibition), 100 μg/mL, tobacco seedlings, checked on seventh day
[3] = system: tobacco mosaic virus (TMV); test: Anti-TMV protective activity (protection mode), live friction inoculation on tobacco seedlings; assay type: in vivo; conditions: Tobacco mosaic virus, read-out: Anti-TMV activity, Protection effect (inhibition)
Pellicularia sasakii = test: Fungicidal activity, fungi growth rate method, PS; assay type: cell-based; conditions: 50 μg/mL; read-out: Fungicidal activity, inhibition, PS
[4] = system: tobacco mosaic virus (TMV); test: Anti-TMV inactivation activity (inactivation mode), compound mixed with TMV before inoculation of tobacco leaves; assay type: in vivo; conditions: Tobacco mosaic virus, read-out: Anti-TMV activity, Inactivation effect (inhibition)
Sclerotinia sclerotiorum = test: microbe, parasite or virus in culture; assay type: cell-based; conditions: Sclerotinia sclerotiorum; for inhibition at 50 µg/mL: 50 μg/mL; for EC90: read-out: EC90 against S. sclerotiorum in vitro
Cercospora arachidicola = test: Fungicidal activity, fungi growth rate method, CA; assay type: cell-based; conditions: Mycosphaerella arachidis; 50 μg/mL; read-out: Fungicidal activity, inhibition, CA
[5] = system: Phytophthora infestans (Mont) de Bary; test: microbe, parasite or virus in culture; assay type: cell-based; conditions: Phytophthora infestans
Botrytis cinerea = test: Fungicidal activity, fungi growth rate method, BC; assay type: cell-based; conditions: Botrytis cinerea, 50 μg/mL
Physalospora piricola = test: Fungicidal activity, fungi growth rate method, PP; assay type: cell-based; conditions: 50 μg/mL; read-out: Fungicidal activity, inhibition, PP
[6] = read-out: Fungicidal activity, inhibition, GZ
[7] = read-out: Fungicidal activity, inhibition, AS
[8] = read-out: Fungicidal activity, inhibition, RC
[9] = read-out: Fungicidal activity, inhibition, SS
[10] = read-out: Fungicidal activity, inhibition, PI
[11] = read-out: Fungicidal activity, inhibition, BC
[12] = read-out: Fungicidal activity (inhibition) against SS: Sclerotinia sclerotiorum
[13] = read-out: Fungicidal activity (inhibition) against PI: Phytophthora infestans (Mont) de Bary
[14] = read-out: Fungicidal activity (inhibition) against BC: Botrytis cinerea

Row | Compound | inhibition at 50 µg/mL (wheat Gibberella zeae; [6]) | inhibition at 50 µg/mL (Alternaria solani; [7]) | inhibition at 100 µg/mL [1] | inhibition at 50 µg/mL (Rhizoctonia cerealis; [8]) | inhibition at 100 µg/mL [2] | melting point | inhibition at 100 µg/mL [3] | inhibition at 50 µg/mL (Pellicularia sasakii) | inhibition at 100 µg/mL [4] | inhibition at 50 µg/mL (Sclerotinia sclerotiorum; [9]) | inhibition at 50 µg/mL (Cercospora arachidicola) | inhibition at 50 µg/mL [5, 10] | inhibition at 50 µg/mL (Botrytis cinerea; [11]) | inhibition at 50 µg/mL (Physalospora piricola) | inhibition at 50 µg/mL (Sclerotinia sclerotiorum; [12]) | also measured
1 | CONC(=O)/C(=C/c1ccccc1)NC(=O)c1ccccc1 [Compound 33, (Z)-N-[1-[(methoxylamino)carbonyl]-2-phenylethenyl]benzamide] | 0% | 21% | 45% | 10% | 3% | 166 to 168 °C | 1% | 5% | 0% | 17% | 13% | 8% | 22% | 3% |  | 
2 | CC(C)(C)OC(=O)N1CCC(c2nc(/C=C(\NC(=O)c3ccccc3)C(=O)O)cs2)CC1 [Compound 74, (Z)-2-benzoylamino-3-[4-[2-[4-(1-Boc-piperidine)]thiazol]]propenoic acid] | 42% | 36% | 63% | 44% | 3% | 125 to 127 °C | 48% | 38% | 0% | 89% | 39% | 40% | 41% | 32% | 80 to 95% | inhibition at 50 µg/mL (Rhizoctonia cerealis; read-out: Fungicidal activity (inhibition) against RC: Rhizoctonia cerealis): 44%; inhibition at 50 µg/mL [5, 13]: 40%; inhibition at 50 µg/mL (Botrytis cinerea; [14]): 41%
3 | O=C(N/C(=C\c1ccccc1)C(=O)N1CCC(O)(c2ccc(Br)cc2)CC1)c1cccs1 [Compound 14, (Z)-N-[1-[[4-(4-bromophenyl)-4-hydroxy-1-piperidinyl]carbonyl]-2-phenylethenyl]-2-thiophenecarboxamide] | 7% | 17% | 52% | 8% | 39% | 134 to 136 °C | 34% | 3% | 30% | 83% | 7% | 5% | 24% | 0% | 80 to 95% | 
4 | O=C(N/C(=C\c1ccccc1C(F)(F)F)C(=O)N1CCC(O)(c2ccc(Br)cc2)CC1)c1ccccc1 [Compound 22] | 28% | 12% | 22% | 26% | 59% | 149 to 151 °C | 0% | 15% | 58% | 100% | 25% | 5% | 8% | 8% | 100% | EC90 (Sclerotinia sclerotiorum): 199 µg/mL (≈ 347 µM)
5 | O=C(N/C(=C\c1ccccc1)C(=O)N1CCC(O)(c2ccc(Br)cc2)CC1)c1ccccc1[N+](=O)[O-] [Compound 12, (Z)-N-[1-[[4-(4-bromophenyl)-4-hydroxy-1-piperidinyl]carbonyl]-2-phenylethenyl]-2-nitrobenzamide] | 39% | 12% | 0% | 14% | 56% | 122 to 124 °C | 23% | 17% | 28% | 100% | 16% | 10% | 8% | 17% | 100% | EC90 (Sclerotinia sclerotiorum): 192 µg/mL (≈ 348 µM)
6 | COC(=O)CCCNC(=O)/C(=C/c1ccccc1)NC(=O)c1ccccc1 [Compound 36, (Z)-N-[1-[[1-(4-methylbutanoate)amino]carbonyl]-2-phenylethenyl]benzamide] | 0% | 21% | 41% | 16% | 36% | 110 to 111 °C | 13% | 0% | 0% | 50% | 10% | 2% | 10% | 0% |  | 
7 | O=C(N/C(=C\c1cccc(C(F)(F)F)c1)C(=O)N1CCC(O)(c2ccc(Br)cc2)CC1)c1ccccc1 [Compound 21, (Z)-N-[1-[[4-(4-bromophenyl)-4-hydroxy-1-piperidinyl]carbonyl]-2-(3-trifluoromethylphenyl)ethenyl]benzamide] | 19% | 12% | 9% | 24% | 35% | 118 to 120 °C | 46% | 17% | 58% | 75% | 25% | 2% | 8% | 8% | 60 to 80% | 
8 | CCOC(=O)c1csc(C2CCN(C(=O)/C(=C/c3ccccc3)NC(=O)c3ccccc3)CC2)n1 [Compound 30, (Z)-N-[1-[[[4-[2-(ethylthiazole-4-carboxylate)]]-1-piperidinyl]carbonyl]-2-phenylethenyl]benzamide] | 11% | 13% | 2% | 4% | 3% | 114 to 115 °C | 0% | 13% | 0% | 82% | 7% | 9% | 17% | 2% | 80 to 95% | 
9 | Cc1ccc(/C=C(\NC(=O)c2ccccc2)C(=O)N2CCC(O)(c3ccc(Br)cc3)CC2)cc1 [Compound 15, (Z)-N-[1-[[4-(4-bromophenyl)-4-hydroxy-1-piperidinyl]carbonyl]-2-(4-metylphenyl)ethenyl]benzamide] | 10% | 17% | 41% | 16% | 20% | 234 to 236 °C | 0% | 12% | 0% | 56% | 13% | 21% | 10% | 7% |  | 
10 | Cc1snnc1/C=C1\N=C(c2ccccc2)OC1=O [Compound 78, (4Z)-4-[4-(5-methyl-1,2,3-thiadiazol)ethenyl]-2-phenyl-1,3-oxazol-5-(4H)-one] | 57% | 29% | 68% | 18% | 0% | 149 to 151 °C | 0% | 3% | 47% | 53% | 21% | 26% | 26% | 15% |  | inhibition at 50 µg/mL (wheat Gibberella zeae; read-out: Fungicidal activity (inhibition) against GZ: wheat Gibberella zeae): 57%; inhibition at 50 µg/mL (Alternaria solani; read-out: Fungicidal activity (inhibition) against AS: Alternaria solani): 29%; inhibition at 50 µg/mL [5, 13]: 26%; inhibition at 50 µg/mL (Botrytis cinerea; [14]): 26%
11 | O=C(N/C(=C\c1ccc(F)cc1)C(=O)N1CCC(O)(c2ccc(Br)cc2)CC1)c1ccccc1 [Compound 17, (Z)-N-[1-[[4-(4-bromophenyl)-4-hydroxy-1-piperidinyl]carbonyl]-2-(4-fluorophenyl)ethenyl]-benzamide] | 16% | 28% | 3% | 10% | 0% | 266 to 268 °C | 33% | 15% | 1% | 67% | 23% | 27% | 10% | 3% |  | 
